Data as given in ChEMBL document CHEMBL3774345, “Synthesis of new diarylamides with pyrimidinyl pyridine scaffold and evaluation of their anti-proliferative effect on cancer cell lines” (Bioorg Med Chem Lett, 2016).

Assays:
Type in all cases: functional
[1] = test system: NCI-H460; assay: Cytotoxicity against human NCI-H460 cells assessed as cell growth at 10 uM after 24 hrs by SRB assay; conditions: NCI-H460, 24 h, read-out: Activity
[2] = Cytotoxicity against human HCC2998 cells assessed as cell growth at 10 uM after 24 hrs by SRB assay; conditions: HCC 2998, 24 h, read-out: Activity
[3] = test system: HT-29; assay: Cytotoxicity against human HT-29 cells assessed as cell growth at 10 uM after 24 hrs by SRB assay; conditions: HT-29, 24 h, read-out: Activity
[4] = test system: KM12; assay: Cytotoxicity against human KM12 cells assessed as cell growth at 10 uM after 24 hrs by SRB assay; conditions: KM12, 24 h, read-out: Activity
[5] = Cytotoxicity against human SF268 cells assessed as cell growth at 10 uM after 24 hrs by SRB assay; conditions: SF-268, 24 h, read-out: Activity
[6] = Cytotoxicity against human SF295 cells assessed as cell growth at 10 uM after 24 hrs by SRB assay; conditions: SF-295, 24 h, read-out: Activity
[7] = Cytotoxicity against human SF539 cells assessed as cell growth at 10 uM after 24 hrs by SRB assay; conditions: SF-539, 24 h, read-out: Activity
[8] = Cytotoxicity against human SNB19 cells assessed as cell growth at 10 uM after 24 hrs by SRB assay; conditions: SNB-19, 24 h, read-out: Activity
[9] = Cytotoxicity against human SNB75 cells assessed as cell growth at 10 uM after 24 hrs by SRB assay; conditions: SNB-75, 24 h, read-out: Activity
[10] = test system: U-251; assay: Cytotoxicity against human U251 cells assessed as cell growth at 10 uM after 24 hrs by SRB assay; conditions: U-251, 24 h, read-out: Activity
[11] = test system: Malme-3M; assay: Cytotoxicity against human MALME-3M cells assessed as cell growth at 10 uM after 24 hrs by SRB assay; conditions: read-out: Activity
[12] = test system: MDA-MB-435; assay: Cytotoxicity against human MDA-MB-435 cells assessed as cell growth at 10 uM after 24 hrs by SRB assay; conditions: MDA-MB-435, 24 h, read-out: Activity
[13] = test system: SK-MEL-2; assay: Cytotoxicity against human SK-MEL-2 cells assessed as cell growth at 10 uM after 24 hrs by SRB assay; conditions: SK-MEL-2, 24 h, read-out: Activity
[14] = Cytotoxicity against human UACC62 cells assessed as cell growth at 10 uM after 24 hrs by SRB assay; conditions: UACC-62, 24 h, read-out: Activity
[15] = Cytotoxicity against human IGROV1 cells assessed as cell growth at 10 uM after 24 hrs by SRB assay; conditions: IGROV-1, 24 h, read-out: Activity
[16] = Cytotoxicity against human OVCAR3 cells assessed as cell growth at 10 uM after 24 hrs by SRB assay; conditions: OVCAR-3, 24 h, read-out: Activity
[17] = Cytotoxicity against human OVCAR4 cells assessed as cell growth at 10 uM after 24 hrs by SRB assay; conditions: OVCAR-4, 24 h, read-out: Activity
[18] = Cytotoxicity against human OVCAR5 cells assessed as cell growth at 10 uM after 24 hrs by SRB assay; conditions: OVCAR-5, 24 h, read-out: Activity
[19] = Cytotoxicity against human OVCAR8 cells assessed as cell growth at 10 uM after 24 hrs by SRB assay; conditions: OVCAR-8, 24 h, read-out: Activity
[20] = Cytotoxicity against human SKOV3 cells assessed as cell growth at 10 uM after 24 hrs by SRB assay; conditions: SK-OV-3, 24 h, read-out: Activity
[21] = test system: 786-0; assay: Cytotoxicity against human 786-0 cells assessed as cell growth at 10 uM after 24 hrs by SRB assay; conditions: 786-0, 24 h, read-out: Activity
[22] = test system: A498; assay: Cytotoxicity against human A498 cells assessed as cell growth at 10 uM after 24 hrs by SRB assay; conditions: A498, 24 h, read-out: Activity
[23] = Cytotoxicity against human Caki1 cells assessed as cell growth at 10 uM after 24 hrs by SRB assay; conditions: CAKI-1, 24 h, read-out: Activity
[24] = Cytotoxicity against human RXF393 cells assessed as cell growth at 10 uM after 24 hrs by SRB assay; conditions: RXF 393, 24 h, read-out: Activity
[25] = Cytotoxicity against human TK10 cells assessed as cell growth at 10 uM after 24 hrs by SRB assay; conditions: TK-10, 24 h, read-out: Activity
[26] = Cytotoxicity against human PC3 cells assessed as cell growth at 10 uM after 24 hrs by SRB assay; conditions: PC-3, 24 h, read-out: Activity
[27] = Cytotoxicity against human DU145 cells assessed as cell growth at 10 uM after 24 hrs by SRB assay; conditions: DU-145, 24 h, read-out: Activity
[28] = test system: MCF7; assay: Cytotoxicity against human MCF7 cells assessed as cell growth at 10 uM after 24 hrs by SRB assay; conditions: MCF7, 24 h, read-out: Activity
[29] = test system: MDA-MB-231; assay: Cytotoxicity against human MDA-MB-231 cells assessed as cell growth at 10 uM after 24 hrs by SRB assay; conditions: MDA-MB-231, 24 h, read-out: Activity
[30] = test system: MDA-MB-468; assay: Cytotoxicity against human MDA-MB-468 cells assessed as cell growth at 10 uM after 24 hrs by SRB assay; conditions: MDA-MB-468, 24 h, read-out: Activity
[31] = Cytotoxicity against human NCI60 cells assessed as growth inhibition at 10 uM after 24 hrs by SRB assay; conditions: NCI60, 24 h
[32] = test system: CCRF-CEM; assay: Cytotoxicity against human CCRF-CEM cells assessed as cell growth at 10 uM after 24 hrs by SRB assay; conditions: read-out: Activity
[33] = Cytotoxicity against human HL-60(TB) cells assessed as cell growth at 10 uM after 24 hrs by SRB assay; conditions: HL-60, 24 h, read-out: Activity
[34] = test system: K562; assay: Cytotoxicity against human K562 cells assessed as cell growth at 10 uM after 24 hrs by SRB assay; conditions: K562, 24 h, read-out: Activity
[35] = Cytotoxicity against human MOLT4 cells assessed as cell growth at 10 uM after 24 hrs by SRB assay; conditions: MOLT-4, 24 h, read-out: Activity
[36] = Cytotoxicity against human RPMI8226 cells assessed as cell growth at 10 uM after 24 hrs by SRB assay; conditions: RPMI-8226, 24 h, read-out: Activity
[37] = test system: SR; assay: Cytotoxicity against human SR cells assessed as cell growth at 10 uM after 24 hrs by SRB assay; conditions: read-out: Activity
[38] = test system: EKVX; assay: Cytotoxicity against human EKVX cells assessed as cell growth at 10 uM after 24 hrs by SRB assay; conditions: read-out: Activity
[39] = Cytotoxicity against human HOP62 cells assessed as cell growth at 10 uM after 24 hrs by SRB assay; conditions: HOP-62, 24 h, read-out: Activity

COCCCNc1nc(NC(=O)c2cc(Br)cc(C(F)(F)F)c2)cc(-c2cccnc2)n1
growth at 10 µM [1]: 85.7% | growth at 10 µM [2]: 114% | growth at 10 µM [3]: 83.7% | growth at 10 µM [4]: 105% | growth at 10 µM [5]: 90.5% | growth at 10 µM [6]: 89.2% | growth at 10 µM [7]: 94% | growth at 10 µM [8]: 95.9% | growth at 10 µM [9]: 115% | growth at 10 µM [10]: 85.9% | growth at 10 µM [11]: 99.7% | growth at 10 µM [12]: 88.4% | growth at 10 µM [13]: 80.6% | growth at 10 µM [14]: 90.5% | growth at 10 µM [15]: 91.3% | growth at 10 µM [16]: 109% | growth at 10 µM [17]: 92.3% | growth at 10 µM [18]: 100% | growth at 10 µM [19]: 87.5% | growth at 10 µM [20]: 92.2% | growth at 10 µM [21]: 85.8% | growth at 10 µM [22]: 76.2% | growth at 10 µM [23]: 81.4% | growth at 10 µM [24]: 103% | growth at 10 µM [25]: 95.8% | growth at 10 µM [26]: 70.6% | growth at 10 µM [27]: 100% | growth at 10 µM [28]: 83.8% | growth at 10 µM [29]: 75.8% | growth at 10 µM [30]: 82.8% | inhibition at 10 µM [31]: 11.3% | growth at 10 µM [32]: 80.8% | growth at 10 µM [33]: 94.6% | growth at 10 µM [34]: 73.3% | growth at 10 µM [35]: 80.1% | growth at 10 µM [36]: 65.6% | growth at 10 µM [37]: 83.4% | growth at 10 µM [38]: 96% | growth at 10 µM [39]: 91.8%

Cc1cc(Cl)ccc1C(=O)Nc1cc(-c2cccnc2)nc(NCCCN2CCOCC2)n1
growth at 10 µM [1]: 110% | growth at 10 µM [2]: 100% | growth at 10 µM [3]: 95.7% | growth at 10 µM [4]: 101% | growth at 10 µM [5]: 101% | growth at 10 µM [6]: 97.9% | growth at 10 µM [7]: 91.4% | growth at 10 µM [8]: 89.8% | growth at 10 µM [9]: 91.3% | growth at 10 µM [10]: 96.2% | growth at 10 µM [11]: 104% | growth at 10 µM [12]: 101% | growth at 10 µM [13]: 106% | growth at 10 µM [14]: 102% | growth at 10 µM [15]: 109% | growth at 10 µM [16]: 111% | growth at 10 µM [17]: 97.7% | growth at 10 µM [18]: 94.1% | growth at 10 µM [19]: 96.9% | growth at 10 µM [20]: 93.7% | growth at 10 µM [21]: 77.2% | growth at 10 µM [22]: 95.2% | growth at 10 µM [23]: 101% | growth at 10 µM [24]: 101% | growth at 10 µM [25]: 87.2% | growth at 10 µM [26]: 107% | growth at 10 µM [27]: 97.6% | growth at 10 µM [28]: 90.1% | growth at 10 µM [29]: 97.3% | growth at 10 µM [30]: 88.5% | inhibition at 10 µM [31]: 1.46% | growth at 10 µM [32]: 101% | growth at 10 µM [34]: 113% | growth at 10 µM [35]: 98% | growth at 10 µM [36]: 104% | growth at 10 µM [37]: 98.7% | growth at 10 µM [38]: 99.8% | growth at 10 µM [39]: 91.5%
